Laboratory results published in article PMC9841288 (Journal of Translational Autoimmunity, 2022).

Experiments:
ALK = ALK (Homo sapiens, UniProt Q9UM73); test: KINOMEscan competition binding, single dose […]
DYRK1A = DYRK1A (Homo sapiens, UniProt Q13627); test: radiometric HotSpot kinase assay, […] ATP; assay type: biochemical
ALK(C1156Y) = ALK(C1156Y) (Homo sapiens, UniProt Q9UM73, C1156Y); test: KINOMEscan competition binding, single dose […]
DYRK1B = DYRK1B (Homo sapiens, UniProt Q9Y463); test: KINOMEscan competition binding, single dose […]
Sequence of DYRK1B (Q9Y463 whole entry): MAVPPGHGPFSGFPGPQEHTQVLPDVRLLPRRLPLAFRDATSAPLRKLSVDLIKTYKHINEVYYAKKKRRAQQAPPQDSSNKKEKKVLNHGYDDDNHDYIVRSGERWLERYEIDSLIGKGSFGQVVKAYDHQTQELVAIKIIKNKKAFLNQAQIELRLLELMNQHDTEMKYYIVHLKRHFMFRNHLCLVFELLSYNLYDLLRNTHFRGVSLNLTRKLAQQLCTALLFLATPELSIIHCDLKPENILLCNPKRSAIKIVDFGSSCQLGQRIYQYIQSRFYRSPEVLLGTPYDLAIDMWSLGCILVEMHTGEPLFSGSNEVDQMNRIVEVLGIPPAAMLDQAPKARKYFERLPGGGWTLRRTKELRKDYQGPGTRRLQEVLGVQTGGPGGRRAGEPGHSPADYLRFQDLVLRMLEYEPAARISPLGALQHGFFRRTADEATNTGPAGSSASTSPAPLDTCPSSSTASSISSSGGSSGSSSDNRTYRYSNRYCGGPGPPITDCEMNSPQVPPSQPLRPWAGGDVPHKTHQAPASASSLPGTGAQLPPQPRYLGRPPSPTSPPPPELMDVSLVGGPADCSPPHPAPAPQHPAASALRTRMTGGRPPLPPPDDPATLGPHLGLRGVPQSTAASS

CLK1 = CLK1 (Homo sapiens, UniProt P49759); test: KINOMEscan competition binding, single dose […]
Sequence of CLK1 (P49759 whole entry): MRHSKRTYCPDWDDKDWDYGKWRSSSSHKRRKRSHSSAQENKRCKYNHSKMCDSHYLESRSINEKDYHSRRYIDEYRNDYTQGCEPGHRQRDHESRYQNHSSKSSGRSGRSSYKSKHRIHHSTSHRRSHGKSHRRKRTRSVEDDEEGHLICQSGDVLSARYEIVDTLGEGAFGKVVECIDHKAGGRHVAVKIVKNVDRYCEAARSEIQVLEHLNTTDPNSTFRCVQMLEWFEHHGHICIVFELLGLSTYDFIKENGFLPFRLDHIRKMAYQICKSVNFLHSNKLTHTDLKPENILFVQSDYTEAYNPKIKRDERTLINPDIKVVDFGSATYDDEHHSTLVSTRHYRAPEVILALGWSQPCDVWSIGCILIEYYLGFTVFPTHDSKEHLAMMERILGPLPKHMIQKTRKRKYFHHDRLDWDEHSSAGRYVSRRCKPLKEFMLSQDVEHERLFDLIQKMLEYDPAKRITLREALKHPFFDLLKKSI

MYLK = MYLK (Homo sapiens, UniProt Q15746); test: KINOMEscan competition binding, single dose […]
CLK2 = CLK2 (Homo sapiens, UniProt P49760); test: KINOMEscan competition binding, single dose […]
Sequence of CLK2 (P49760 whole entry): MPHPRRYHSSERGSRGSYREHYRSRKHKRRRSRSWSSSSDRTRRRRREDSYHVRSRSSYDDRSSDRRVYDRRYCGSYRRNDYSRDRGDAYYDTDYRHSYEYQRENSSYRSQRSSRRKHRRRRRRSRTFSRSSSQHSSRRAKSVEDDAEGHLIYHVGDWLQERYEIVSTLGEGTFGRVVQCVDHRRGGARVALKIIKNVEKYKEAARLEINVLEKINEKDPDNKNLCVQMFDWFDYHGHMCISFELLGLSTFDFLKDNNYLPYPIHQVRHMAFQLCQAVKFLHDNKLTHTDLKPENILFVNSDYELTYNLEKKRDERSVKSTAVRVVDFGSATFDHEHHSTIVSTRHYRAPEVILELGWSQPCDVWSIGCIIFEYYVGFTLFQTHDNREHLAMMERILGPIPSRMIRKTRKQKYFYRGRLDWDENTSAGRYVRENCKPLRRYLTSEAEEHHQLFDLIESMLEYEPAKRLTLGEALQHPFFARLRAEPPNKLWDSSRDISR

Sequence of ALK(C1156Y) (Q9UM73 1093-1411 C1156Y limits assumed): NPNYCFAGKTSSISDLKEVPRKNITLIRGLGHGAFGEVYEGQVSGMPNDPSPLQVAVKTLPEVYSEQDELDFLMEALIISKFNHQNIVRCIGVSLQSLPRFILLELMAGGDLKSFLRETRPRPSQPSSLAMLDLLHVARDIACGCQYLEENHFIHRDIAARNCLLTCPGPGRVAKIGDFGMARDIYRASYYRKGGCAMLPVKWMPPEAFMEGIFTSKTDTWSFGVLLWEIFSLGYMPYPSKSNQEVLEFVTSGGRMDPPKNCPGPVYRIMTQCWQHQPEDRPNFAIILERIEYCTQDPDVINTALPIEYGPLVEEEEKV
Sequence of ALK (Q9UM73 19-1620): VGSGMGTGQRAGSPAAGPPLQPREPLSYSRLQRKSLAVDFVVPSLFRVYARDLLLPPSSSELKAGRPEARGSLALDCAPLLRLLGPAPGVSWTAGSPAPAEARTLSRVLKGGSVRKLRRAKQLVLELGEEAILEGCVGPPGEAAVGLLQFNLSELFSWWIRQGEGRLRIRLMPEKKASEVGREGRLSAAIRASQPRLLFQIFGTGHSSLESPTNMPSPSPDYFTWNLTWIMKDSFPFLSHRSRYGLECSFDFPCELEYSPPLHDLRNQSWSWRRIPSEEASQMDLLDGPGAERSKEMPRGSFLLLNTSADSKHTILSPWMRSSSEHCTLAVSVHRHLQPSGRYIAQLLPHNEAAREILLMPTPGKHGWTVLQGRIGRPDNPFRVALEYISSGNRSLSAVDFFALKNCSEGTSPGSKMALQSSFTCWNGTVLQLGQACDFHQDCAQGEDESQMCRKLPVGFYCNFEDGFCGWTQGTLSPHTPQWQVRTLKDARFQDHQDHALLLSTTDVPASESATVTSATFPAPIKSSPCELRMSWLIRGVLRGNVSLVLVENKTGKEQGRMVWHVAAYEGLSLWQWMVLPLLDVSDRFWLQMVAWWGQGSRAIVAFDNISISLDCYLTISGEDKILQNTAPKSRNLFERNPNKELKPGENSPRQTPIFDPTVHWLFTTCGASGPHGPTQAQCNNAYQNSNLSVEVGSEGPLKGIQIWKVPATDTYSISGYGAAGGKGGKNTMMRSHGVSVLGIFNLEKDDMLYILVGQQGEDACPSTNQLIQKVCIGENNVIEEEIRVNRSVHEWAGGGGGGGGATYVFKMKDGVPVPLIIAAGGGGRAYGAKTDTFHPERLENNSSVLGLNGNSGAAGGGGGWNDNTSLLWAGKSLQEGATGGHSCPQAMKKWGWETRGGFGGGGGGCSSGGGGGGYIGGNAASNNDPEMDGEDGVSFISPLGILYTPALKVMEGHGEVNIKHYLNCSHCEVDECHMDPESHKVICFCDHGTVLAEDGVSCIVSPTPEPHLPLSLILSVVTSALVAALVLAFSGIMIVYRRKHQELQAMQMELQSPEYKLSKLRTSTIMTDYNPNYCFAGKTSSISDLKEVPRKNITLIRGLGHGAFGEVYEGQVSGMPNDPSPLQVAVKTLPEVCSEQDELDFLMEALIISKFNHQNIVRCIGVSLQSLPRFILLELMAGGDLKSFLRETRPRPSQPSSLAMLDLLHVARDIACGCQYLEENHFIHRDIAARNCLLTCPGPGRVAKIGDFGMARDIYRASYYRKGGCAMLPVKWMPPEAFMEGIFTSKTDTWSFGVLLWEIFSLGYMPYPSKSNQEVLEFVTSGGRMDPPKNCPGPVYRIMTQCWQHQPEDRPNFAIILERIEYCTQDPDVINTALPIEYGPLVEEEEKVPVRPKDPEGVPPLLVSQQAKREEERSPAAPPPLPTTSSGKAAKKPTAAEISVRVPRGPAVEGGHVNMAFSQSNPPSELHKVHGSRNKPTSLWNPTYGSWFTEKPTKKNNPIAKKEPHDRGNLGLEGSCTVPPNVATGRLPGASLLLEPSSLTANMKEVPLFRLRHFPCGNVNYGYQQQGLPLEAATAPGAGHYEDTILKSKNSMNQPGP

## FRTX-02
ALK
  % of control unbound at 1 μM: 3.5
DYRK1A
  IC50: 2.9 nM
ALK(C1156Y)
  % of control unbound at 1 μM: 2.5
DYRK1B
  % of control unbound at 1 μM: 1.8
CLK1
  % of control unbound at 1 μM: 1.1
MYLK
  % of control unbound at 1 μM: 7.8
CLK2
  % of control unbound at 1 μM: 3.3
